Assay in all cases: inhibition of tumour cell growth, NCI panel, 48 h
Experiment [1] has as its system A498 renal.
The subject of experiment [2] is CCRF-CEM leukemia.
Experiment [3] deals with DU-145 prostate.
The test system of experiment [4] is EKVX NSCLC.
Experiment [5] has as its system K-562 leukemia.
Experiment [6] relates to MCF7 breast.
Experiment [7] relates to MDA-MB-435.
Experiment [8] relates to MDA-N.
Experiment [9] deals with MOLT-4 leukemia.
Experiment [10] relates to NCI-H522 lung.
The subject of experiment [11] is SN12C renal.
Experiment [12] concerns SNB-75 CNS.

Structures are written as SMILES.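 Growth conditions: 96-well plates. Treatment: test compound, 48 hours, 5 concentrations. Analysis: linear interpolation between bracketing concentrations; unreached endpoints set to highest concentration. TGI: concentration producing complete growth inhibition.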

For the molecule `CCCCCCCCCCCCCCCCNC(=O)C(=O)/C=C(\O)c1ccc(C)cc1`, the TGI in experiment [1], in [2], in experiment [3], in experiment [4], in experiment [5] and in experiment [6] was above 10 µM throughout. The TGI in [7], in experiment [8], in experiment [9], in experiment [10], in [11] and in experiment [12] was above 10 µM in each case.

`O=C1c2cc(Cl)ccc2NC(=NC2CCCC2)C2CSCN12` (stereo not given): the TGI in [1], in experiment [2], in experiment [3], in [4], in [5] and in [6] was above 100 µM throughout. The TGI in experiment [7], in [8], in experiment [9], in experiment [10], in experiment [11] and in [12] was above 100 µM each time.

Take `c1ccc(C(NCC2CCO2)(c2ccccc2)c2ccccc2)cc1` (stereo not given): the TGI in experiment [1] was 36.1 µM; in [2], above 100 µM; in [3] it was 71.3 µM; in experiment [4] it was 30.8 µM; in [5], above 100 µM; in experiment [6], 31.7 µM. In addition, the TGI in experiment [7] was 46 µM; in [8], 54.5 µM; in experiment [9], above 100 µM; in [10], 28.1 µM; in experiment [11], 51.3 µM; in experiment [12], 28.8 µM.

On to `Cc1nc(C)c(N2CCN(S(=O)(=O)N(Cc3ccccc3)Cc3ccccc3)CC2)c(=O)[nH]1`, for which the TGI in experiment [1] was above 75.7 µM; in [2] it was above 100 µM; in experiment [3], above 100 µM; in experiment [4] it was above 100 µM; in [5], above 100 µM; in [6] it was above 100 µM. In addition, the TGI in [7] was above 100 µM; in [8] it was above 100 µM; in experiment [9] it was above 100 µM; in [10], 65.1 µM; in [11] it was above 100 µM; in experiment [12] it was 32.9 µM.

With `COc1ccc2nc(-c3ccccc3)cc(OCC(=O)O)c2c1`, the TGI in experiment [1], in [2], in experiment [3], in experiment [4], in [5] and in experiment [6] was above 100 µM throughout. Moreover, the TGI in experiment [7], in experiment [8], in experiment [9], in experiment [10], in [11] and in experiment [12] was above 100 µM throughout.
